According to publication PMC4933878 (2016):

System: c-myc pu22 DNA (c-myc G-quadruplex DNA) (DNA, G4) TGGGGAGGGTGGGGAGGGTGGGGAAGG
Assay: UV-vis absorption titration (hypochromism)
Details: 100 mM KCl; Tris-HCl, pH 7.2; 20 μM compound; hypochromism MLCT 14.6%, IL 38.9%; constant not given

binding: yes
Structure (SMILES): C(#Cc1ccc(-c2nc3c4cccnc4c4ncccc4c3[nH]2)cc1)c1ccccc1.[Ru+2].c1ccc(-c2ccccn2)nc1.c1ccc(-c2ccccn2)nc1
